According to PubChem BioAssay (NCI):
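Briefly, cells in 96-well plates were exposed to five compound concentrations for 48 h, and endpoints were estimated by linear interpolation. The concentration for 50% growth inhibition is given as GI50. The concentration for full growth arrest is given as TGI.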

Legend:
Assay in all cases: NCI tumour cell line growth inhibition, 48 h
[1] = system: U251 CNS
[2] = system: OVCAR-4 ovarian
[3] = system: COLO 205 colon
[4] = system: M14 melanoma
[5] = system: NCI-H23 lung
[6] = system: CCRF-CEM leukemia
[7] = system: LOX IMVI melanoma
[8] = system: MDA-MB-231 breast
[9] = system: T-47D breast
[10] = system: SW-620 colon
[11] = system: NCI/ADR-RES ovarian
[12] = system: SR leukemia
[13] = system: SN12C renal
[14] = system: HT29 colon
[15] = system: PC-3 prostate
[16] = system: HOP-92 NSCLC
[17] = system: RXF 393 renal
[18] = system: DU-145 prostate
[19] = system: SF-295 CNS
[20] = system: MOLT-4 leukemia
[21] = system: SNB-75 CNS
[22] = system: UO-31 renal
[23] = system: HCT-15 colon
[24] = system: SNB-19 CNS
[25] = system: SK-MEL-5 melanoma
[26] = system: NCI-H460 lung
[27] = system: ACHN renal
[28] = system: HS 578T breast
[29] = system: A498 renal
[30] = system: K-562 leukemia
[31] = system: NCI-H226 lung
[32] = system: SK-MEL-28 melanoma
[33] = system: OVCAR-3 ovarian
[34] = system: NCI-H522 lung
[35] = system: KM12 colon
[36] = system: A549 NSCLC
[37] = system: MCF7 breast
[38] = system: MDA-MB-435
[39] = system: SK-OV-3 ovarian
[40] = system: UACC-257 melanoma
[41] = system: OVCAR-8 ovarian
[42] = system: TK-10 renal
[43] = system: HCC-2998 colon
[44] = system: HCT-116 colon
[45] = system: MDA-N
[46] = system: MALME-3M melanoma
[47] = system: RPMI-8226 leukemia
[48] = system: BT-549 breast
[49] = system: OVCAR-5 ovarian
[50] = system: SK-MEL-2 melanoma
[51] = system: UACC-62 melanoma
[52] = system: 786-0 renal
[53] = system: IGROV1 ovarian
[54] = system: SF-268 CNS
[55] = system: HOP-62 NSCLC
[56] = system: EKVX NSCLC
[57] = system: CAKI-1 renal
[58] = system: HL-60(TB) leukemia
[59] = system: SF-539 CNS

In the case of `CCOC(=O)C1(C(=O)OCC)COS(=O)OC1`, the TGI [1] is reported as > 100 µM, the TGI [2] is reported as 42.6 µM and the TGI [3] is reported as 54.5 µM. The TGI [4] was > 100 µM, the TGI [5] was > 100 µM and the TGI [6] was > 100 µM. It also gave a TGI [7] of 28.4 µM, a TGI [8] of 35.3 µM and a TGI [9] of 50.8 µM. The TGI [10] was 36.1 µM, the TGI [11] was > 100 µM and the TGI [12] was > 100 µM. For the same molecule, the TGI [13] was > 100 µM, the TGI [14] was > 100 µM and the TGI [15] was > 100 µM. The TGI [16] was 28.6 µM, the TGI [17] was 32.6 µM and the TGI [18] was > 100 µM. The TGI [19] was > 100 µM, the TGI [20] was 56.4 µM and the TGI [21] was > 100 µM. For the same molecule, the TGI [22] was > 100 µM, the TGI [23] was 54.6 µM and the TGI [24] was > 100 µM. For the same molecule, the TGI [25] was > 100 µM, the TGI [26] was > 100 µM and the TGI [27] was > 100 µM. The TGI [28] was > 100 µM, the TGI [29] was > 100 µM and the TGI [30] was > 100 µM. The TGI [31] was 40.6 µM, the TGI [32] was 95.7 µM and the TGI [33] was 42.1 µM. For the same molecule, the TGI [34] was 2.1 µM, the TGI [35] was > 100 µM and the TGI [36] was > 100 µM. The TGI [37] was 36.6 µM, the TGI [38] was > 100 µM and the TGI [39] was > 100 µM. The TGI [40] was > 100 µM, the TGI [41] was > 100 µM and the TGI [42] was > 100 µM. For the same molecule, the TGI [43] was > 100 µM, the TGI [44] was 31.2 µM and the TGI [45] was > 100 µM.
For `CC1=C2C(=C[C@H]3[C@]4(C)CCCC(C)(C)[C@H]4CC[C@]34O[C@H]24)OC1=O`, the TGI [1] was > 100 µM, the TGI [2] was > 100 µM and the TGI [46] was > 100 µM. The TGI [3] was > 100 µM, the TGI [4] was > 100 µM and the TGI [5] was > 100 µM. For the same molecule, the TGI [8] was > 100 µM, the TGI [47] was > 100 µM and the TGI [10] was > 100 µM. For the same molecule, the TGI [11] was > 100 µM, the TGI [13] was > 100 µM and the TGI [14] was > 100 µM. The TGI [48] was > 100 µM, the TGI [15] was > 100 µM and the TGI [16] was > 100 µM. The TGI [17] was > 100 µM, the TGI [49] was > 100 µM and the TGI [18] was > 100 µM. For the same molecule, the TGI [50] was > 100 µM, the TGI [19] was > 100 µM and the TGI [20] was > 100 µM. The TGI [21] was > 100 µM, the TGI [22] was > 100 µM and the TGI [23] was > 100 µM. For the same molecule, the TGI [24] was > 100 µM, the TGI [25] was > 100 µM and the TGI [26] was > 100 µM. The TGI [27] was > 100 µM, the TGI [29] was > 100 µM and the TGI [30] was > 100 µM. The TGI [31] was > 100 µM, the TGI [51] was > 100 µM and the TGI [32] was > 100 µM. The TGI [52] was > 100 µM, the TGI [53] was > 100 µM and the TGI [34] was > 100 µM. For the same molecule, the TGI [35] was > 100 µM, the TGI [36] was > 100 µM and the TGI [37] was > 100 µM. The TGI [54] was > 100 µM, the TGI [38] was > 100 µM and the TGI [39] was > 100 µM. For the same molecule, the TGI [55] was > 100 µM, the TGI [40] was > 100 µM and the TGI [42] was > 100 µM. For the same molecule, the TGI [56] was > 100 µM, the TGI [43] was > 100 µM and the TGI [44] was > 100 µM. The TGI [45] was > 100 µM.
In the case of `Nc1cc(Br)c(-c2nnc(CCC(=O)c3nc4ccccc4[nH]3)o2)c(Br)c1`, the GI50 [1] is reported as 3.5 µM, the TGI [1] is reported as > 100 µM and the GI50 [2] is reported as 5.49 µM. The TGI [2] was 78.3 µM, the GI50 [46] was 2.06 µM and the TGI [46] was 17.2 µM. The GI50 [3] was 11.8 µM, the TGI [3] was 30.8 µM and the GI50 [57] was 19.8 µM. For the same molecule, the TGI [57] was > 100 µM, the GI50 [4] was 17.5 µM and the TGI [4] was 55.5 µM. For the same molecule, the GI50 [5] was 3.26 µM, the TGI [5] was 36.4 µM and the GI50 [6] was 3.81 µM. For the same molecule, the TGI [6] was > 100 µM, the GI50 [7] was 3.25 µM and the TGI [7] was 46.4 µM. The GI50 [8] was 10.1 µM, the TGI [8] was 86.8 µM and the GI50 [9] was 23.4 µM. The TGI [9] was > 100 µM, the GI50 [47] was 4.21 µM and the TGI [47] was > 100 µM. For the same molecule, the GI50 [10] was 3.28 µM, the TGI [10] was > 100 µM and the GI50 [11] was 22.6 µM. The TGI [11] was > 100 µM, the GI50 [12] was 4.2 µM and the TGI [12] was > 100 µM. The GI50 [13] was 29.5 µM, the TGI [13] was > 100 µM and the GI50 [14] was 19.2 µM. For the same molecule, the TGI [14] was 83.5 µM, the GI50 [48] was 6.82 µM and the TGI [48] was > 100 µM. The GI50 [15] was 2.9 µM, the TGI [15] was > 100 µM and the GI50 [58] was 3.44 µM. The TGI [58] was > 100 µM, the GI50 [16] was 0.499 µM and the TGI [16] was 19.9 µM. The GI50 [59] was 17.3 µM, the TGI [59] was 60.8 µM and the GI50 [17] was 13 µM. For the same molecule, the TGI [17] was 58.7 µM, the GI50 [49] was 29.4 µM and the TGI [49] was > 100 µM. The GI50 [18] was 5.4 µM, the TGI [18] was 53.5 µM and the GI50 [50] was 4.3 µM. The TGI [50] was > 100 µM, the GI50 [19] was 9.78 µM and the TGI [19] was 35.6 µM. The GI50 [20] was 4.94 µM, the TGI [20] was > 100 µM and the GI50 [21] was 2.96 µM. For the same molecule, the TGI [21] was 20.5 µM, the GI50 [22] was 4.06 µM and the TGI [22] was > 100 µM. The GI50 [23] was > 100 µM, the TGI [23] was > 100 µM and the GI50 [24] was 20.1 µM. The TGI [24] was > 100 µM, the GI50 [25] was 14.2 µM and the TGI [25] was > 100 µM. The GI50 [26] was 3.99 µM, the TGI [26] was 20.1 µM and the GI50 [27] was 48 µM. For the same molecule, the TGI [27] was > 100 µM, the GI50 [28] was 3.75 µM and the TGI [28] was 31.7 µM. For the same molecule, the GI50 [29] was 0.662 µM, the TGI [29] was 10.5 µM and the GI50 [30] was 2.89 µM. For the same molecule, the TGI [30] was > 100 µM, the GI50 [31] was 22.6 µM and the TGI [31] was > 100 µM. The GI50 [51] was 5.37 µM, the TGI [51] was > 100 µM and the GI50 [32] was 6.31 µM. For the same molecule, the TGI [32] was 79 µM, the GI50 [52] was 21 µM and the TGI [52] was 61.7 µM. It also gave a GI50 [53] of 5.87 µM, a TGI [53] of 62.7 µM and a GI50 [33] of 2.6 µM. The TGI [33] was 6.98 µM, the GI50 [34] was 2.9 µM and the TGI [34] was 16.9 µM. The GI50 [35] was 3.71 µM, the TGI [35] was 18 µM and the GI50 [36] was 27.6 µM. The TGI [36] was > 100 µM, the GI50 [37] was 3.06 µM and the TGI [37] was > 100 µM. The GI50 [54] was 5.14 µM, the TGI [54] was 81.5 µM and the GI50 [38] was 1.56 µM. The TGI [38] was 3.71 µM, the GI50 [39] was 22.3 µM and the TGI [39] was 80.5 µM. For the same molecule, the GI50 [55] was 23.7 µM, the TGI [55] was > 100 µM and the GI50 [40] was 7.63 µM. For the same molecule, the TGI [40] was > 100 µM, the GI50 [41] was 21.6 µM and the TGI [41] was > 100 µM. The GI50 [42] was 36.5 µM, the TGI [42] was > 100 µM and the GI50 [56] was 23.1 µM. The TGI [56] was > 100 µM, the GI50 [43] was 11 µM and the TGI [43] was 42.5 µM. For the same molecule, the GI50 [44] was 8.26 µM and the TGI [44] was > 100 µM.
